Measurements reported in patent publication US20210057047A1, “IN-SILICO METHOD FOR DESIGNING A (D)-POLYPEPTIDE LIGAND” (THE GOVERNING COUNCIL OF THE UNIVERSITY OF TORONTO, priority 2018, published 2021).
Square brackets hold non-standard residues; d marks the D form. Peptide text beside a SMILES is read from it.

Assays:
[1] = molecular target: T1, Proteinase K (ProtK) (Parengyodontium album, UniProt P06873); experiment: in vitro; format: in vitro ADME
T1 construct: purchased Bioshop
Protocol: Stocks of 20 μM peptide in 200 μL total volume (10 mM Tris-base, 10 mM NaCl, pH 7.4) were supplemented with 5 μM CaCl2) and 30 uL removed for the untreated T0 sample. Proteinase K (ProtK, Bioshop) was then added to a final concentration of 100 μg/mL. Samples were incubated at 37° C. and 30 μL removed after each time point and protease activity blocked by the addition of 10 mM PMSF (200 mM stock dissolved in isopropanol). Protease inactivated samples were frozen at −20° C. until further use. Digestions were repeated three times. Frozen samples were supplemented with 8 μL sample loading buffer (4× NuPAGE, ThermoFisher Scientific), boiled ([…]) for 10 minutes, and centrifuged (12 000 rpm, 10 min) prior to loading the gel (12% NuPAGE Bis-Tris (ThermoFisher Scientific) with MES running buffer). Gels were run at 200 V for […] and stained using Coomassie Brilliant Blue dye. Densitometry of bands was determined using ImageJ software (40) with back ground subtraction. All samples were normalized to their respective untreated sample (T0).

[2] = molecular target: T2, RLN receptor (RXFP1) (Homo sapiens, UniProt Q9HBX9); experiment: CRE-luciferase reporter assay in HEK293 cells stably expressing RXFP1; format: cell-based
T2 construct: expressed in transfected cells; host or cells: HEK293
T2 sequence (Q9HBX9 1-757): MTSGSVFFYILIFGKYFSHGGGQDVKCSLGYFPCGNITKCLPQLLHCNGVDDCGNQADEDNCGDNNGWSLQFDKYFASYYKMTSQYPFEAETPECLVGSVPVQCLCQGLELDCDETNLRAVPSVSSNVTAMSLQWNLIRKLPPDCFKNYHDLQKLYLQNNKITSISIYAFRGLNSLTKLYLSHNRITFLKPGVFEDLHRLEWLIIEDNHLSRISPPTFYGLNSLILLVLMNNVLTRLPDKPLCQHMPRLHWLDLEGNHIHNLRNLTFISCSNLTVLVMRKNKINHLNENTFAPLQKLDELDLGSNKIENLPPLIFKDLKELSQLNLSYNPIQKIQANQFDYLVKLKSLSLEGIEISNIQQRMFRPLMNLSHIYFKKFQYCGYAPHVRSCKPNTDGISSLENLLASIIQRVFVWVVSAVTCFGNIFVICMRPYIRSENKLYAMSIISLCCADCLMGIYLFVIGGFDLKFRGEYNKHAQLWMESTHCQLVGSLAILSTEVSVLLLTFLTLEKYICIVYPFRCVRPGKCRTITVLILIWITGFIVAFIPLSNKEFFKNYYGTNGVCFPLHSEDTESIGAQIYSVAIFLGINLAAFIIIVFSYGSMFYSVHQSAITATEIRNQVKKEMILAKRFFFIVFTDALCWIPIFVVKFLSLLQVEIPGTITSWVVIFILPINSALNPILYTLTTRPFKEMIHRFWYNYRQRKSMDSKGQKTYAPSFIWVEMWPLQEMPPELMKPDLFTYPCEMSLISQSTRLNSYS
Protocol: This activates protein kinase A (PKA) to phosphorylate and activate cAMP response element-binding protein (CREB). […] All of the (L)-RLN was degraded in about 1 hr, while about 90% of the (D)-analog was still detectable at 6 hours.
FIG. 15 is a series of charts and experiments showing the activity and protease degradation of (D)-RLN_1 (non-mutated) and (D)-RLN_2 (mutated) polypeptides. (A) HEK293 cells stably expressing RXFP1 and CRE-luciferase were stimulated with different concentrations of (D)-RLN_1 and (D)-RLN_2 peptides. Luciferase activity was measured. The experiments were performed in triplicate. (B) Sample gel images of (L) and (D)-RLN peptides treated with Proteinase K (ProtK) over 5 hours. Gels were stained with Coomassie Brilliant Blue dye and band densitometry calculated using ImageJ (40) with background subtraction. (C) Quantification of remaining peptide post ProtK treatment in 60 min intervals. Intensities of peptide bands were normalized to the intensity of the untreated peptide (T0) and converted to a percentage relative to T0. […] Error bars are reporting standard error. Data represent the average of 3 independent experiments.

T1 sequence (P06873 106-384): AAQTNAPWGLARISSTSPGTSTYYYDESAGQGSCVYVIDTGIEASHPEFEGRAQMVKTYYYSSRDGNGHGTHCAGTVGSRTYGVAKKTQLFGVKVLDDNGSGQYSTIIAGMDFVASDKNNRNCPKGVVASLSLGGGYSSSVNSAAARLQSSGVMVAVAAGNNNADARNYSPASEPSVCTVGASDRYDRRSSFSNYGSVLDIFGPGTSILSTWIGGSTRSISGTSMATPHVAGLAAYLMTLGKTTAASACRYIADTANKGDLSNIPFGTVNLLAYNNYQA

CC[C@@H](C)[C@@H](NC(=O)[C@@H](CC(C)C)NC(=O)[C@@H](CC(C)C)NC(=O)[C@@H](CCC(=O)O)NC(=O)[C@@H](CCCCN)NC(=O)[C@@H](CO)NC(=O)[C@H](NC(=O)[C@@H](Cc1c[nH]c2ccccc12)NC(=O)[C@H](N)CO)[C@H](C)O)C(=O)N[C@H](CCC(=O)O)C(=O)N[C@@H](C(=O)N[C@@H](C(=O)N[C@H](CC(N)=O)C(=O)N[C@H](CC(=O)O)C(=O)N[C@H](CC(C)C)C(=O)N[C@H](CCC(N)=O)C(=O)N[C@H](CCCCN)C(=O)N[C@H](CCCNC(=N)N)C(=O)NCC(=O)N[C@H](CS)C(=O)N[C@H](CC(C)C)C(=O)N[C@H](CCCCN)C(=O)N[C@@H](C(=O)N[C@@H](C(=O)N[C@H](CCC(=O)O)C(=O)N[C@H](CCC(=O)O)C(=O)N[C@H](CCSC)C(=O)N[C@H](Cc1c[nH]c2ccccc12)C(=O)N[C@H](CO)C(=O)O)C(C)C)[C@H](C)CC)[C@H](C)CC)[C@H](C)CC [(D)-RLN] (H-[dS][dW][dT][dS][dK][dE][dL][dL][dI][dE][dI][dI][dN][dD][dL][dQ][dK][dR]G[dC][dL][dK][dI][dV][dE][dE][dM][dW][dS]-OH; N-terminus and C-terminus assumed)
degradation by ProtK (in words) [1]: persists after 5 hours
remaining at 6 h, 20 µM ([1]; isolated enzyme proteinase k, pH 7.4, after 6 hours exposure to ProtK, relative to T0, read-out: peptide still detectable): ~90%
activation of RLN receptor, potency and efficacy (in words) [2]: potency and efficacy comparable to (L)-RLN
